From PMC6062912, “The Evolutionary Conserved γ-Core Motif Influences the Anti-Candida Activity of the Penicillium chrysogenum Antifungal Protein PAF” (Frontiers in Microbiology, 2018)
Converted amounts (≈) assume the structure as drawn. Residues, ends and D or L forms follow the SMILES beside them.

How the values were obtained:
[1] = test system: C. albicans; experiment: ROS production, DCFH-DA fluorometric assay; type: cell-based, Candida albicans; conditions: for ROS signal higher compared to Pγ: 60 min
Method: For the detection of ROS generation in C. albicans a dichloro-dihydro-fluorescein diacetate (DCFH-DA, Sigma-Aldrich)-based fluorometric assay was applied, adapted from [Han et al. (2016)]. Cells from an overnight culture of C. albicans, grown on YPD agar, were suspended in 0.05× PDB (Sigma-Aldrich) and the cell number was adjusted to 10^7 cells mL^-1. DCFH-DA stock solution (100 mM in DMSO) was added to the cell suspension to give a final concentration of 100 μM. This cell suspension was pre-incubated for 30 min at 30°C protected from light. Serial dilutions of the test compounds were prepared in 0.05× PDB (Sigma-Aldrich) in 96-well microtiter plates (Nunclon Delta, Thermo Fisher Scientific) in a volume of 100 μL per well. H2O2 served as a positive control for ROS induction. After pre-incubation, the DCFH-DA loaded cells were added to the test compounds (100 μL per well) to give a final volume of 200 μL in each well and the 96-well plate was placed in a multi-mode microplate reader (FLUOstar Omega, BMG Labtech), set to 30°C incubation temperature. The fluorescence signal was recorded every 5 min over a time course of 4 h at excitation and emission wavelengths of 485 and 520 nm, respectively. Measurements were prepared in duplicates and assays were performed at least three times.
Since ROS production is an early marker for programmed cell death, we were also interested whether the investigated AMPs induce ROS in C. albicans. Therefore, C. albicans cells were loaded with DCFH-DA, which is converted intracellularly to the highly fluorescent DCF when oxidized in the presence of ROS ([Chen et al., 2010]). During exposure of the cells to 0–20 μM AMPs the DCF signal intensities were recorded in RFU every 5 min over a time-course of 4 h. The background RFU of 6,757 ± 117 was detected in C. albicans cells that were not exposed to AMPs, but loaded with DCFH-DA, diluted in 0.05× PDB (0.1% DMSO final concentration). The RFU value remained constant over the time of measurement. For all AMPs, we detected a time- and dose-dependent increase of ROS (Supplementary Figure S9) and ROS production was prevented by the addition of 1 mM of the antioxidant ascorbic acid to the highest concentration (20 μM) of each AMP (Supplementary Figure S10).

[2] = test system: C. albicans; type: cell-based, Candida albicans; conditions: 24 h
Method: Fungal strains used in this study are listed in Supplementary Table S1 and composition of growth media is given in Supplementary Table S2. All P. chrysogenum shaking cultures were inoculated with 2 × 10^8 conidia, in 200 mL defined minimal medium (PcMM) for protein expression or complete medium (CM) before transformation, and grown at 25°C as described ([Sonderegger et al., 2016]). For conidial suspension generation from surface cultures, P. chrysogenum was grown on PcMM agar at 25°C. C. albicans was used as PAF-sensitive model organism and was cultivated on yeast extract peptone dextrose (YPD) agar at 37°C. For growth inhibition and susceptibility assays, C. albicans was grown in 20-fold diluted potato dextrose broth (PDB, Sigma-Aldrich) at 30°C, pH 5.5 ([Huber et al., 2018]).
The MIC of all protein and peptide variants was determined on C. albicans with broth microdilution assays in 96-well microtiter plates (Nunclon Delta, Thermo Fisher Scientific). From a fresh C. albicans overnight culture on YPD agar, cells were harvested with an inoculation loop and suspended in 0.05× PDB (Sigma-Aldrich) ([Arendrup et al., 2016]). The cell number was determined with a counting chamber (Bürker) and the cell number was adjusted to 10^4 mL^-1. In each well, 10^3 cells were incubated with increasing concentrations of antifungal proteins or peptides in a final volume of 200 μL 0.05× PDB. The plates were incubated for 24 h at 30°C before the growth was determined by measuring the optical density (OD620nm) with a multi-mode microplate reader (FLUOstar Omega, BMG Labtech). The MIC was defined as the protein concentration that inhibited growth by ≥90% compared to the untreated control, which was referred as 100% growth.

Row | SMILES | ROS signal above the background ([1]; 1.3 μM, 4 h) [%] | fluorescence signal above the background (ROS) ([1]; 20 μM, 30 min) [%] | ROS signal higher compared to Pγ ([1]; 20 μM) | ROS signal above the level induced by Pγ ([1]; 20 μM, 4 h) [%] | MIC [2] [µM]
1 | CC(=O)N[C@@H](CCCCN)C(=O)N[C@@H](Cc1ccc(O)cc1)C(=O)N[C@H](C(=O)NCC(=O)N[C@@H](CCCCN)C(=O)N[C@@H](CS)C(=O)N[C@@H](CCCCN)C(=O)N[C@H](C(=O)N[C@@H](CCCCN)C(=O)N[C@@H](CCCCN)C(=O)N[C@@H](CC(N)=O)C(=O)N[C@@H](CCCCN)C(=O)N[C@@H](CS)C(=O)N[C@@H](CCCCN)C(N)=O)[C@@H](C)O)[C@@H](C)O [Pγ^opt] (Ac-KYTGKCKTKKNKCK-NH2) | 36 | 31 | +85% | 446 | 
2 | CC(=O)N[C@@H](CCCCN)C(=O)N[C@@H](Cc1ccc(O)cc1)C(=O)N[C@H](C(=O)NCC(=O)N[C@@H](CCCCN)C(=O)N[C@@H](CS)C(=O)N[C@@H](Cc1ccc(O)cc1)C(=O)N[C@@H](CCCCN)C(=O)N[C@@H](CCCCN)C(=O)N[C@@H](CCCCN)C(=O)N[C@@H](CC(N)=O)C(=O)N[C@@H](CCC(=O)O)C(=O)N[C@@H](CS)C(=O)N[C@@H](CCCCN)C(N)=O)[C@@H](C)O [Pγ^var] (Ac-KYTGKCYKKKNECK-NH2) |  |  | +50% | 146 | 2.5 (≈ 4.41 µg/mL)
